The test system of one data set is A549. In words: MTT cell viability assay. The class given is cell-based. To be noted: Homo sapiens, read-out: IC50 (μM) A549. The protocol: (§1) The cytotoxicity activities of potent PD derivatives obtained from the SIE method against A549 and H1975, as well as Vero (which are adherent cells), were assessed using MTT (3-(4,5-dimethyl-2-thiazolyl)-2,5-diphenyl-2H-tetrazolium bromide) assays. The A549 and Vero cells were grown in complete DMEM medium whereas H1975 cells were grown in complete RPMI medium supplemented with 10% (v/v) FBS, 100 U/mL penicillin and 100 µg/mL streptomycin. All cells were routinely cultured at 37 °C in a 5% (v/v) CO2, 95% (v/v) air humidified incubator. A549 (5 × 10^3 cells per well), H1975 (5 × 10^3 cells per well), and Vero (2 × 10^3 cells per well) cells were seeded into 96-well plates and incubated overnight. After cell attachment, cells were replenished using fresh medium with 0.1% FBS containing various concentrations of potent PD derivatives and known drugs and then incubated at 37 °C for 72 h. After that, fresh medium containing MTT solution (5 mg/mL) was added and incubated at 37 °C. After 3 h, the formed formazan crystal was dissolved with 100 μL of dimethyl sulfoxide (DMSO). Finally, the absorbance of formazan solution was measured at a wavelength 570 nm using a microplate reader (Infinite M200 microplate reader, Tecan, Männedorf, Switzerland). The independent treatments were repeated in triplicate. The IC50 determination of compounds was achieved using GraphPad Prism version 9.0.

A further data set concerns H1975. Put plainly: MTT cell viability assay. The class given is cell-based. As to conditions: Homo sapiens, read-out: IC50 (μM) H1975. The protocol:
as §1
In general terms: Tetrazolium dyes change colour on reduction, which living cells bring about.

The subject of another data set is Vero. Put plainly: MTT cell viability assay, normal cell line. The class given is cell-based, monkey. To be noted: 72 h, read-out: IC50 (μM) Vero. The procedure: as §1
A further data set addresses wild-type EGFR (Homo sapiens, UniProt P00533). Put plainly: EGFR inhibitory activity, ADP-Glo kinase assay. The data set is classed as biochemical. As to conditions: for IC50: ADP-Glo; for EGFR inhibitory screening: single 1 µM concentration. In general terms: ADP-Glo first removes unused ATP, then detects ADP through luciferase.
The next data set addresses L858R/T790M EGFR (Homo sapiens, UniProt P00533, L858R/T790M). In words: EGFR inhibitory activity, ADP-Glo kinase assay. The data set is classed as biochemical. To be noted: for IC50: ADP-Glo.
For the next data set, the target named is L858R/T790M/C797S EGFR (Homo sapiens, UniProt P00533, C797S/L858R/T790M). Put plainly: EGFR inhibitory activity, ADP-Glo kinase assay. The class given is biochemical.
The mark [1] stands for this setting: Primates, Vero, Vero normal cells, MTT.

Each structure is given as a SMILES string. Structures can show the parent of a compound that is named as a salt. Where two headings read alike, the source gives them in different places.

`Cc1ncc(Cn2ccnc2)c2cc(C(=O)c3ccc(Br)cc3)oc12.Cl` displayed a melting point of 278 to 280 °C.
`Cc1ncc(Cn2cnc(Cl)c2Cl)c2cc(C(=O)c3ccc(Br)cc3)oc12` showed a melting point of 183 to 185 °C.
Same read-out and setting: the figure for `Cc1ncc(CN2CCN(C=O)CC2)c2cc(C(=O)c3ccc(Br)cc3)oc12.Cl` is 233 to 239 °C; for `Cc1ncc(CN2CCN(Cc3cccnc3)CC2)c2cc(C(=O)c3ccc4c(c3)OCCO4)oc12` (as salt: hydrochloride) [PD13, (2,3-Dihydrobenzo[d][1,4]dioxin-6-yl){7-methyl-4-[(4-(pyridin-3-ylmethyl)piperazin-1-yl)methyl]furo[2,3-c]pyridin-2-yl}methanone dihydrochloride] it is 224 to 227 °C.
Consider `CN(C)C/C=C/C(=O)Nc1cc2c(Nc3ccc(F)c(Cl)c3)ncnc2cc1O[C@H]1CCOC1` [Afatinib], for which the IC50 with A549 (A549, 72 h) is 34.7 ± 0.67 µM; with H1975 (NCI-H1975, 72 h) it was 27.3 ± 1.87 µM; in the data set on Vero (Primates, Vero) it was over 50 µM.
The like results for `C#Cc1cccc(Nc2ncnc3cc(OCCOC)c(OCCOC)cc23)c1` [Erlotinib] were, in that order, 19.4 ± 0.79 µM, 41.8 ± 2.19 µM and over 30 µM.
On to `C=CC(=O)Nc1cc(Nc2nccc(-c3cn(C)c4ccccc34)n2)c(OC)cc1N(C)CCN(C)C` [Osimertinib], for which the IC50 in the data set with A549 (A549, 72 h) was 25.3 ± 1.21 µM; with H1975 (NCI-H1975, 72 h), 18.3 ± 2 µM; in the data set with Vero (Primates, Vero), over 50 µM.
`COc1ccc(C(=O)c2cc3c(CO)cnc(C)c3o2)cc1` [PD1, [4-Hydroxymethyl-7-methylfuro[2,3-c]pyridin-2-yl](4-methoxyphenyl)methanone] displayed a melting point of 147 to 148 °C.
Consider `Cc1ncc(CN2CCN(Cc3ccccn3)CC2)c2cc(C(=O)c3ccc(Br)cc3)oc12.Cl.Cl` [PD3, (4-Bromophenyl){7-methyl-4-[(4-(pyridin-2-ylmethyl)piperazin-1-yl]methyl}furo[2,3-c]pyridin-2-yl)methanone dihydrochloride], for which the melting point was in the range of 224 to 225 °C.
In turn, `Cc1ncc(CN2CCN(Cc3cccnc3)CC2)c2cc(C(=O)c3ccc(Br)cc3)oc12.Cl.Cl` [PD4, (4-Bromophenyl){7-methyl-4-[(4-(pyridin-3-ylmethyl)piperazin-1-yl]methyl}furo[2,3-c]pyridin-2-yl)methanone dihydrochloride] came in with a melting point of 243 to 247 °C. The IC50 in the data set on A549 (A549, MTT, 72 h) was determined as 19.7 ± 0.59 µM. Also, the IC50 with H1975 (NCI-H1975, H1975, MTT, 72 h) was found to be 27.3 ± 1.02 µM. Moreover, at wild-type EGFR, the IC50 was found to be 4.78 ± 0.73 nM and the EGFR inhibitory screening result is on record as “only against wild-type EGFR”. For the same compound, on wild-type EGFR (ratio of IC50 values), the “EGFR inhibitory activity compared to erlotinib” value is listed as over 2 fold. The IC50 on L858R/T790M EGFR worked out at 91 ± 2.01 nM. Moreover, the IC50 in the data set on Vero (setting [1]) was under 100 µM. In addition, in the data set with Vero (Vero normal cells, MTT), the IC50 is over 50 µM. Further, half-maximal inhibition at L858R/T790M/C797S EGFR (IC50) was put at 104 ± 3.62 nM.
Compound `Cc1ncc(CN2CCN(CCC#N)CC2)c2cc(C(=O)c3ccc(Br)cc3)oc12` [PD10, 3-{4-[(2-(4-bromobenzoyl)-7-methylfuro[2,3-c]pyridin-4-yl)methyl]piperazin-1-yl}propanenitrile] registered a melting point of 129 to 132 °C.
On to `Cc1ncc(CN2CCN(Cc3cccnc3)CC2)c2cc(C(=O)c3ccc4c(c3)OCCO4)oc12` [PD13, (2,3-Dihydrobenzo[d][1,4]dioxin-6-yl){7-methyl-4-[(4-(pyridin-3-ylmethyl)piperazin-1-yl)methyl]furo[2,3-c]pyridin-2-yl}methanone dihydrochloride], for which the IC50 with A549 (A549, MTT, 72 h) is 18.1 ± 1.57 µM; in the data set with H1975 (NCI-H1975, H1975, MTT, 72 h) it was 33.9 ± 0.86 µM; against wild-type EGFR, 11.6 ± 1.3 nM; against L858R/T790M EGFR, 10.5 ± 0.71 nM; with Vero (setting [1]) it was over 100 µM; against L858R/T790M/C797S EGFR, 21.9 ± 1.79 nM. The EGFR inhibitory screening entry at wild-type EGFR and on L858R/T790M EGFR (single 1 µM concentration) was “active” throughout. Also, at L858R/T790M/C797S EGFR, the “IC50 (nM) L858R/T790M/C797S” value is given as “double-digit nanomolar range”.

By melting point is commonly meant the temperature, or range, at which the solid turns liquid. Broadly, the IC50 is the concentration needed to halve the response being measured.

Values taken from PMC10096398, “Discovery of Novel EGFR Inhibitor Targeting Wild-Type and Mutant Forms of EGFR: In Silico and In Vitro Study” (Molecules, 2023).
